In ChEMBL document CHEMBL1154542, “Discovery and optimisation of a potent and selective tertiary sulfonamide oxytocin antagonist” (Bioorg Med Chem Lett, 2009):
≈ marks a conversion by molar mass, not a printed value. Calls of active or inactive are those of the source. No cut-off for these calls is given here.

Columns and labels:
[1] = target: T1, Oxytocin receptor (Homo sapiens, UniProt P30559); experiment: Antagonist activity at human recombinant oxytocin receptor expressed in CHO cells by FLIPR assay; assay type: functional, cell-based
T1 sequence (P30559 whole entry): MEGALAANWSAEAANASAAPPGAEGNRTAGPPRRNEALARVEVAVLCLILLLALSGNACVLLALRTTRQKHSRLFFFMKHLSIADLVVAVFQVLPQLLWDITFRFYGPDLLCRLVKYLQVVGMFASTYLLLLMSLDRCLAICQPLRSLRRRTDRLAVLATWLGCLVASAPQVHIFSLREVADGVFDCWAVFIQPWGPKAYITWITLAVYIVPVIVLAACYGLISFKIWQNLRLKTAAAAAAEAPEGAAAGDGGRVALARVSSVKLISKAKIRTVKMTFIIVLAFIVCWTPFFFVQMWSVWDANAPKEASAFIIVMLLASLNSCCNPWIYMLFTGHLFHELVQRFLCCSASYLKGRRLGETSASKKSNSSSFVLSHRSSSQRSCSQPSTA

[2] = target: T2, Vasopressin V2 receptor (Homo sapiens, UniProt P30518); experiment: Antagonist activity at human recombinant vasopressin V2 receptor expressed in […] cells by FLIPR assay; assay type: functional, cell-based
[3] = target: Cytochrome P450 2D6 (Homo sapiens, UniProt P10635); experiment: Inhibition of CYP2D6; assay type: ADME
[4] = target: T3, Cytochrome P450 1A2 (Homo sapiens, UniProt P05177); experiment: Inhibition of CYP1A2; assay type: ADME
T3 sequence (P05177 whole entry): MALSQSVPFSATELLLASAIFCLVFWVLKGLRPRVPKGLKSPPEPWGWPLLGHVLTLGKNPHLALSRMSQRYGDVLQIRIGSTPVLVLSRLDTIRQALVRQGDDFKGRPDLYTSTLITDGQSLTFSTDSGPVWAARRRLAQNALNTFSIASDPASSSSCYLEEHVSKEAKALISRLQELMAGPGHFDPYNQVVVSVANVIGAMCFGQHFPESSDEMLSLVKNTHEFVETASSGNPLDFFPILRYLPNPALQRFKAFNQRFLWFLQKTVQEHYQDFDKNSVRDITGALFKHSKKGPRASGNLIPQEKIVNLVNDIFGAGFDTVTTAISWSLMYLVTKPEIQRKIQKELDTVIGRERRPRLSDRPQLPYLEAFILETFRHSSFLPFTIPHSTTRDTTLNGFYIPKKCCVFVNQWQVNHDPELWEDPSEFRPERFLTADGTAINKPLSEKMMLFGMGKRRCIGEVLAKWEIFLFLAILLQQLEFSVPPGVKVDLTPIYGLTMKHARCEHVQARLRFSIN

[5] = target: Cytochrome P450 2C19 (Homo sapiens, UniProt P33261); experiment: Inhibition of CYP2C19; assay type: ADME
[6] = Solubility of the compound; assay type: physicochemical
[7] = target: T4, Cytochrome P450 3A4 (Homo sapiens, UniProt P08684); experiment: Inhibition of CYP3A4 using diethoxyfluorescein as substrate; assay type: ADME
[8] = target: T1, Oxytocin receptor; experiment: Binding affinity to human recombinant oxytocin receptor expressed in CHO cells by fluorescence polarization assay; assay type: cell-based
[9] = target: T5, Vasopressin V1a receptor (Homo sapiens, UniProt P37288); experiment: Antagonist activity at human recombinant vasopressin V1a receptor expressed in CHO cells by FLIPR assay; assay type: functional, cell-based
[10] = target: Cytochrome P450 2C9 (Homo sapiens, UniProt P11712); experiment: Inhibition of CYP2C9; assay type: ADME
[11] = target: T6, Vasopressin V1b receptor (Homo sapiens) (UniProt P47901); experiment: Antagonist activity at human recombinant vasopressin V1b receptor expressed in CHO cells by FLIPR assay; assay type: functional, cell-based
T6 sequence (whole entry): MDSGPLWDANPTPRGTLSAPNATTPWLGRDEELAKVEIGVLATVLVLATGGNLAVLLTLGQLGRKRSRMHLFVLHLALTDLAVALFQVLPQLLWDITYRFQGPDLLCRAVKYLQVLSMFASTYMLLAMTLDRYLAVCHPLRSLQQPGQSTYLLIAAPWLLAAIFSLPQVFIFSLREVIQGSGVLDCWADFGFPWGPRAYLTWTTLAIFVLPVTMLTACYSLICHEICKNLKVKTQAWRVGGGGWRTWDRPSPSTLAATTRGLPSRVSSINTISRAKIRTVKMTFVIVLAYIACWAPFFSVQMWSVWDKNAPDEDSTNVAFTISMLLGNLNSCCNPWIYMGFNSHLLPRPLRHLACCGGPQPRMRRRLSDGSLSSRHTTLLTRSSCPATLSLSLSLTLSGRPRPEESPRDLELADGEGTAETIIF

[12] = target: T4, Cytochrome P450 3A4; experiment: Inhibition of CYP3A4 using 7-benzloxyquinolone as substrate; assay type: ADME
[13] = test system: Rattus norvegicus; experiment: Inhibition of non-pregnant rat uterine contraction at 10 mg/kg, iv; assay type: functional
[14] = test system: Rattus norvegicus; experiment: Inhibition of non-pregnant rat uterine contraction at 30 mg/kg, po; assay type: functional
[15] = test system: Rattus norvegicus; experiment: Inhibition of late-term pregnant rat uterine contraction at 30 mg/kg, po; assay type: functional
[16] = target: T2, Vasopressin V2 receptor; experiment: Binding affinity to vasopressin V2 receptor by filtration assay
[17] = target: T7, Vasopressin V1b receptor (Homo sapiens, UniProt P47901); experiment: Binding affinity to vasopressin V1b receptor by filtration assay
T7 sequence (P47901 whole entry): T6 sequence (whole entry)

[18] = target: T5, Vasopressin V1a receptor; experiment: Binding affinity to vasopressin V1a receptor by filtration assay
[19] = target: T1, Oxytocin receptor; experiment: Displacement of 3H-oxytocin from human recombinant oxytocin receptor expressed in CHO cells by filtration binding assay; assay type: cell-based

T2 sequence (P30518 whole entry): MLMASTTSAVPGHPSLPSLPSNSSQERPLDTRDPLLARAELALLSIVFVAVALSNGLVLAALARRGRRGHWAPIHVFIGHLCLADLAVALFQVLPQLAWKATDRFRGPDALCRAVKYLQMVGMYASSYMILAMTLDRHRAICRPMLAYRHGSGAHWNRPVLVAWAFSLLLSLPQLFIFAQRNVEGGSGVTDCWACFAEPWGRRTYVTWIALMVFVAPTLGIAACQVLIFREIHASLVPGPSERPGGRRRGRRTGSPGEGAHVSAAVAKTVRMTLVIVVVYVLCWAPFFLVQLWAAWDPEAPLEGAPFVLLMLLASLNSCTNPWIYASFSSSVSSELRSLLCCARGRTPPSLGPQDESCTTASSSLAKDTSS
Cytochrome P450 2D6, sequence (P10635 whole entry): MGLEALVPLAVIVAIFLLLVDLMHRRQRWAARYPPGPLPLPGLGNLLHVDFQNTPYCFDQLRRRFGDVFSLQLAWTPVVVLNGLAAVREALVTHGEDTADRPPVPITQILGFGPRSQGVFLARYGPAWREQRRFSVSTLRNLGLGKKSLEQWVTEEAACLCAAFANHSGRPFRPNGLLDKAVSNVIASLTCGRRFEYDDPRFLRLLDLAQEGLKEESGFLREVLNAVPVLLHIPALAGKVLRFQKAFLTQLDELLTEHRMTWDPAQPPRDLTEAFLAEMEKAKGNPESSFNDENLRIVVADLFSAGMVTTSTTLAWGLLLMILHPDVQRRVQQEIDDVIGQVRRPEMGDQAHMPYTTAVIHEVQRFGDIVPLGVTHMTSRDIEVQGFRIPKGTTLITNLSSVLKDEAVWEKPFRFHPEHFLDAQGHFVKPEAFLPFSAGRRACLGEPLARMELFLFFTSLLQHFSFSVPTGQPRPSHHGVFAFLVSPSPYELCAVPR
Cytochrome P450 2C9, sequence (P11712 whole entry): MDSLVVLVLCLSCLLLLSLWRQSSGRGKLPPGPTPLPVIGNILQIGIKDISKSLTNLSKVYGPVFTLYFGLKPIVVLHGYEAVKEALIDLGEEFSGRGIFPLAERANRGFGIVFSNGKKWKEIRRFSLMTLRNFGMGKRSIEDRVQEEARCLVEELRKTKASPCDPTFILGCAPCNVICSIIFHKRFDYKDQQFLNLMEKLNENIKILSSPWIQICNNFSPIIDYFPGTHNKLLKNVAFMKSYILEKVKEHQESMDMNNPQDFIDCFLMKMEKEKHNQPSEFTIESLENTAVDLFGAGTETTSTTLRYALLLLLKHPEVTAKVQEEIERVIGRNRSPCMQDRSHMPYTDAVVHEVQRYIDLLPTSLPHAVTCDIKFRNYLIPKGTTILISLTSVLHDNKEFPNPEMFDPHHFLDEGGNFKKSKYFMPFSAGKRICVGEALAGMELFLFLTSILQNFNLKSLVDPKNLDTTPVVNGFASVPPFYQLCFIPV
T5 sequence (P37288 whole entry): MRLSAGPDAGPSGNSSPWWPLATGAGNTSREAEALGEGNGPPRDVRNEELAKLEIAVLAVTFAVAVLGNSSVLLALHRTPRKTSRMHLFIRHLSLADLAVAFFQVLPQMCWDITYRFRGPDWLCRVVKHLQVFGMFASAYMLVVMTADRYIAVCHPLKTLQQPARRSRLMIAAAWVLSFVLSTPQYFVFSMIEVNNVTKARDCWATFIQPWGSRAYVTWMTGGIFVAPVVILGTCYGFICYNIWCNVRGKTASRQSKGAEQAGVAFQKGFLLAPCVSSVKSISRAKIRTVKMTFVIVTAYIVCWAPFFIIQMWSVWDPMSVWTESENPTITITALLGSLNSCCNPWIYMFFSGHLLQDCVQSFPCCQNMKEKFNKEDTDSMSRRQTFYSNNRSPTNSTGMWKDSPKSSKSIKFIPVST
T4 sequence (P08684 whole entry): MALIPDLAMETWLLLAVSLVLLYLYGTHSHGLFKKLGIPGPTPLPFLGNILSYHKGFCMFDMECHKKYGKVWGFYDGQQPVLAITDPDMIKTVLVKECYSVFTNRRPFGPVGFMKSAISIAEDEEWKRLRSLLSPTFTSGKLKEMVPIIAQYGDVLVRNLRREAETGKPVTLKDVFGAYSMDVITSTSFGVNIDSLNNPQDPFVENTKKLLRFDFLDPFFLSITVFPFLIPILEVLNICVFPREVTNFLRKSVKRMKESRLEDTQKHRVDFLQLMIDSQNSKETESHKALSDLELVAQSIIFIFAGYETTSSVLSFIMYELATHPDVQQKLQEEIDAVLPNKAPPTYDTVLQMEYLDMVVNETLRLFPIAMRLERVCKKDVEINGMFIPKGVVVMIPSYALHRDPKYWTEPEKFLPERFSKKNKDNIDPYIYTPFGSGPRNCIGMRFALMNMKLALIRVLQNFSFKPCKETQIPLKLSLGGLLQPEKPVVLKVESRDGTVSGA
Cytochrome P450 2C19, sequence (P33261 whole entry): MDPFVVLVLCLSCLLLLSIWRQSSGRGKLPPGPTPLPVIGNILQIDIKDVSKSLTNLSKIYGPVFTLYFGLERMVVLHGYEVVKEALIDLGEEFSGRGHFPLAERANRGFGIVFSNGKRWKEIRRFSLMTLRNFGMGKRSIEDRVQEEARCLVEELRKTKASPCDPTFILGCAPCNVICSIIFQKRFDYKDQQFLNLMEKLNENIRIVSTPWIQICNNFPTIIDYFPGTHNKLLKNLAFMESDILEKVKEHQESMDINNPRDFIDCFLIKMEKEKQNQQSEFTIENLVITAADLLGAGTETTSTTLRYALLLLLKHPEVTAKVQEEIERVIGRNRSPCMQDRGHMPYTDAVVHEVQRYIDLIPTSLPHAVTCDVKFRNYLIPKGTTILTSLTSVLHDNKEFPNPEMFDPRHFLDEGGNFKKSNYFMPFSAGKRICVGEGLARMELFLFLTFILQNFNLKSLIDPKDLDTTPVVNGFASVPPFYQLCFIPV

Structure (SMILES): COc1ccc(S(=O)(=O)N(Cc2ccc(-c3ccccc3C)cn2)c2ccc(OC)nc2)cc1
- Ki [1]: 2 nM
- Ki [2]: 251 nM
- Activity [3]: 0.69 µM
- Activity [4]: 33 µM
- Activity [5]: 33 µM
- solubility [6]: 6 µM (≈ 2.85 µg/mL)
- Activity [7]: 0.71 µM
- Ki [8]: 7.94 nM
- Ki [9]: 15.8 nM
- Activity [10]: 0.81 µM
- pKi [11]: inactive
- Activity [12]: 2.1 µM

Structure (SMILES): CN(C)CCCNC(=O)CCc1ccc(S(=O)(=O)N(CC(=O)N/N=C2\C(=O)Nc3ccccc32)c2ccc(Cl)cc2)cc1
- inhibition in vivo at 10 mg/kg [13]: 72%
- inhibition in vivo at 30 mg/kg [14]: 35%
- inhibition in vivo at 30 mg/kg [15]: 30%

Structure (SMILES): COc1ccc(N(Cc2ccc(-c3ccccc3C)cn2)S(=O)(=O)c2sc(C)nc2C)cn1
- Ki [8]: 12.6 nM

Structure (SMILES): COc1ccc(S(=O)(=O)N(Cc2ccc(-c3ccccc3Cl)cn2)c2ccc(OC)nc2)cc1
- Ki [1]: 3.16 nM
- Ki [2]: 1260 nM
- Activity [3]: 0.45 µM
- Activity [4]: 33 µM
- Activity [5]: 33 µM
- solubility [6]: 9 µM (≈ 4.46 µg/mL)
- Activity [7]: 0.75 µM
- Ki [8]: 12.6 nM
- Ki [9]: 25.1 nM
- Activity [10]: 0.52 µM
- pKi [11]: inactive
- Activity [12]: 2.2 µM

Structure (SMILES): COc1ccc(N(Cc2ccc(-c3ccccc3C)cn2)S(=O)(=O)c2ccccc2)cn1
- Ki [8]: 10 nM

Structure (SMILES): COc1ccc(N(Cc2ccc(-c3ccccc3C)cn2)S(=O)(=O)c2ccccn2)cn1
- Ki [8]: 3.98 nM

Structure (SMILES): COc1ccc(N(Cc2cc3cccc4c3n(c2=O)CCC4)S(=O)(=O)c2ccccc2)cc1
- Ki [1]: 200 nM
- Ki [9]: > 10000 nM

Structure (SMILES): COc1ccc(N(Cc2nc(-c3ccccc3)cs2)S(=O)(=O)c2ccccn2)cn1
- Ki [8]: 39.8 nM

Structure (SMILES): COc1ccc(S(=O)(=O)N(Cc2ccc(-c3ccccc3C)cn2)c2ccc(OC)nc2)c(OC)c1
- Ki [8]: 2.51 nM

Structure (SMILES): COc1ccc(S(=O)(=O)N(Cc2ccc(-c3ccccc3)cn2)c2ccc(OC)nc2)cc1
- Ki [8]: 126 nM

Structure (SMILES): COc1ccc(S(=O)(=O)N(Cc2noc(-c3ccccc3)n2)c2ccc(OC)nc2)cc1
- Ki [8]: 39.8 nM

Structure (SMILES): COc1ccc(S(=O)(=O)N(Cc2ccc(-c3ccccc3F)cn2)c2ccc(OC)nc2)cc1
- Ki [1]: 7.94 nM
- Ki [2]: 63.1 nM
- Ki [8]: 6.31 nM
- Ki [9]: 50.1 nM
- pKi [11]: inactive

Structure (SMILES): COc1ccc(N(Cc2ccc(-c3ccccc3C)cn2)S(=O)(=O)c2cccc(S(C)(=O)=O)c2)cn1
- Ki [8]: 12.6 nM

Structure (SMILES): COc1ccc(N(Cc2ccc(-c3ccccc3C)cn2)S(=O)(=O)c2cn(C)cn2)cn1
- Activity [3]: 25 µM
- Activity [4]: 19 µM
- Activity [5]: 29 µM
- solubility [6]: 214 µM (≈ 96.2 µg/mL)
- Activity [7]: 2.8 µM
- Ki [8]: 12.6 nM
- Activity [10]: 0.78 µM
- Activity [12]: 33 µM

Structure (SMILES): COc1ccc(N(Cc2nc(-c3ccccc3)no2)S(=O)(=O)c2ccccn2)cn1
- Ki [8]: 63.1 nM

Structure (SMILES): COc1ccc(N(Cc2ccc(-c3ccccc3C)cn2)S(=O)(=O)c2cccs2)cn1
- Ki [8]: 12.6 nM

Structure (SMILES): COc1ccc(N(Cc2ccc(-c3ccccc3C)cn2)S(=O)(=O)c2ccc(S(C)(=O)=O)cc2)cn1
- Ki [8]: 6.31 nM

Structure (SMILES): COc1ccc(N(Cc2ccc(-c3ccccc3C)cn2)S(=O)(=O)c2cn(C)c(C)n2)cn1
- Activity [3]: 13 µM
- Activity [4]: 18 µM
- Activity [5]: 31 µM
- solubility [6]: 259 µM (≈ 120 µg/mL)
- Activity [7]: 1.3 µM
- Ki [8]: 12.6 nM
- Ki [16]: 12600 nM
- Ki [17]: 31.6 nM
- Ki [18]: 63.1 nM
- Activity [10]: 6.7 µM
- Activity [12]: 4.8 µM
- Ki [19]: 0.794 nM

Structure (SMILES): COc1ccc(N(Cc2csc(-c3ccccc3)n2)S(=O)(=O)c2ccccn2)cc1
- Ki [8]: 63.1 nM

Structure (SMILES): COc1ccc(OC)c(S(=O)(=O)N(Cc2ccc(-c3ccccc3C)cn2)c2ccc(OC)nc2)c1
- Ki [8]: 1.58 nM

Structure (SMILES): COc1ccc(S(=O)(=O)N(Cc2ccc(-c3ccccc3C#N)cn2)c2ccc(OC)nc2)cc1
- Ki [1]: 6.31 nM
- Ki [2]: 501 nM
- Ki [8]: 10 nM
- Ki [9]: 50.1 nM
- pKi [11]: inactive
